This note sets out measurements from PMC3171734 (2011).

In data set [1] the target is human DDAH-1 (Homo sapiens, UniProt O94760). The experiment in a line: dose-dependent inhibition of isolated enzyme. It is filed as biochemical.
Data set [2] concerns the target T1, dimethylarginine dimethylaminohydrolase (P. aeruginosa DDAH) (Pseudomonas aeruginosa, UniProt Q9I4E3).
T1 sequence (Q9I4E3 1-254): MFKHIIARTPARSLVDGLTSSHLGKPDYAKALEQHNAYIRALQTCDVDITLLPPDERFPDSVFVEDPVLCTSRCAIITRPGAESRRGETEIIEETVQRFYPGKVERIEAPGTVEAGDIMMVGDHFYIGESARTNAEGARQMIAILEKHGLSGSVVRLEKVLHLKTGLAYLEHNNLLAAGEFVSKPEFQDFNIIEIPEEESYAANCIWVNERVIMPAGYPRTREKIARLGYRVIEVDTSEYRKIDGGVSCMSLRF
The experiment in a line: dose-dependent inhibition of isolated enzyme. It is filed as biochemical.

Substrate in data set [3]: CSC(=N)NCCC[C@H](N)C(=O)O
Nature of the data set: steady-state kinetics, DTNB-coupled 384-well assay. The data set is classed as biochemical, Pseudomonas aeruginosa.

human DDAH-1, sequence (O94760 2-285): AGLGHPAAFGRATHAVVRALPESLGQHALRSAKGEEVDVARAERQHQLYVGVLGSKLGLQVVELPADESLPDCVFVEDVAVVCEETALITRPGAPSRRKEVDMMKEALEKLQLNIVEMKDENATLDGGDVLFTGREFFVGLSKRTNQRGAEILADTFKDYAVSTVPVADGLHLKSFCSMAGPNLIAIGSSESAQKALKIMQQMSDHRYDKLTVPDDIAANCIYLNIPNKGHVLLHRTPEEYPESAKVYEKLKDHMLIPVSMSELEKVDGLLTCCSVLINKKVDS

The IC50 is the point on the concentration scale where inhibition reaches its midpoint. A low value points to inhibition by little substance. In the case of `O=c1c2ccccc2[se]n1-c1ccccc1` [ebselen], the IC50 amounted to 330 ± 30 nM in data set [1] and 96 ± 2 nM in data set [2].

B1: dimethylarginine dimethylaminohydrolase (P. aeruginosa DDAH) (Pseudomonas aeruginosa PAO1) (protein)
chain: MFKHIIARTPARSLVDGLTSSHLGKPDYAKALEQHNAYIRALQTCDVDITLLPPDERFPDSVFVEDPVLCTSRCAIITRPGAESRRGETEIIEETVQRFYPGKVERIEAPGTVEAGDIMMVGDHFYIGESARTNAEGARQMIAILEKHGLSGSVVRLEKVLHLKTGLAYLEHNNLLAAGEFVSKPEFQDFNIIEIPEEESYAANCIWVNERVIMPAGYPRTREKIARLGYRVIEVDTSEYRKIDGGVSCMSLRF
A word on the Km: it is the concentration of substrate that gives half-maximal velocity. For the molecule B1, the Km in data set [3] was determined as 22 ± 1 µM.
